In EP0000693A1, “Aminophenoxymethyl-2-morpholine derivatives, the preparation thereof and pharmaceuticals containing them” (Dr. Karl Thomae GmbH, priority 1977, dated 1979):
Counter-ions that a name gives are not always drawn. Like-named read-outs stand apart in the source and are kept apart here.

How the values were obtained:
[1] = system: maximalen Elektrokrampf bei Mäusen; test: Anticonvulsant effect: maximal electroshock seizure (Versuch 2); format: in vivo, Maus; details: Mus musculus, 2.5 h
From the text: (§1) Beispielsweise wurden die Verbindungen • A = 2-(2-Amino-3,5-dibrom-phenoxy-methylen)-morpholin-hydrochlorid, • B = 2-(4-Amino-3,5-dibrom-phenoxy-methylen)-4-isopropyl-morpholin- hydrochlorid, • C = 2-(4-Amino-3,5-dibrom-phenoxy-methylen)-morpholin-hydrochlorid, • D = 2-(2-Amino-3,5-dibrom-phenoxy-methylen)-4-tert.butyl-morpholin-hydrochlorid und • E = 2-(2-Amino-5-brom-4-chlor-phenoxy-methylen)-4-isopronyl- morpholin-dihydrochlorid ,im Vergleich zu • F = 2-(2-Äthoxy-phenoxy-methylen)-morpholin-hydrochlorid auf ihre biologischen Wirkungen wie folgt untersucht: • 1. […] Bei 20 - 26 g schweren männlichen Mäusen wurde durch 3 mg/kg Reserpin s.c. Hypothermie erzeugt. 17 Stunden später wurde die Körpertemperatur mittels eines elektrischen Schlundsondenthermometers gemessen. Anschließend wurden Gruppen von 6 - 10 Tieren die zu prüfenden Substanzen in der Dosis von 40 mg/kg p.o. verabreicht. Kontrollgruppen erhielten das Lösungsmittel (Aqua dest.). Die Körpertemperaturen wurden 1 - 4 Stunden nach Substanzverabreichung in stündlichem Abstand gemessen. Zur Auswertung wurden der maximale Wiederanstieg der Körpertemperatur der Substanzgruppe mit den Temperaturen der Kontrolltiergruppen verglichen und die Temperaturunterschiede mit dem MANN-WHITNEY-U-Test auf Signifikanz geprüft. • 2. […] Dazu wurde bei 10 männlichen, 20-26 g schweren Mäusen ein Krampfzustand mit Wechselstrom (50 mA, 50 Hz, 0,2 sec Dauer) über mit physiologischer : Kochsalz-Lösung angefeuchtete, an den Kopf der Tiere gelegte Metallelektroden erzeugt, wobei das Ausbleiben der tonischen Extensorkomponente dieses Krampfes 150 Minuten nach Substanzgabe als antikonvulsive Wirkung gewertet wurde.

[2] = system: Muskelrelax. + Sedierung Maus; test: Muscle relaxation and sedation (Versuch 3); format: in vivo; details: mouse; method text not readable (image)
[3] = system: durch Reserpin hervorgerufene Hypothermie bei Mäusen; test: Antidepressant effect: antagonism of reserpine-induced hypothermia (Versuch 1); format: in vivo, Maus; details: 40 mg/kg p.o., 17 h after 3 mg/kg Reserpin s.c.; maximal re-rise of body temperature versus controls, measured 1 - 4 h after dosing; * = significant versus controls, p ≤ 0,05
From the text: as §1

[4] = male mice, 50 mA, 50 Hz, 0,2 sec, absence of tonic extensor component 150 min after dosing, ED50 by LITCHFIELD and WILCOXON, read-out: Versuch 2 Elektrokrampf Maus ED50-Hemmung

Compound	ED50 [1, 4] [mg/kg]	ED50 [2] [mg/kg]	Versuch 1 Reserpin Maus 40 mg/kg: +°C [3]	ED50 ([1]; read-out: Versuch 2 Elektrokrampf Maus ED50-Hemmung mg/kg) [mg/kg]
Nc1c(Br)cc(Br)cc1OCC1CNCCO1 (stereo not drawn) [A, 2-(2-Amino-3,5-dibrom-phenoxy-methylen)-morpholin-hydrochlorid]	26.5	> 200	10,7* °C	
CC(C)N1CCOC(COc2cc(Br)c(N)c(Br)c2)C1 (stereo not drawn) [B, 2-(4-Amino-3,5-dibrom-phenoxy-methylen)-4-isopropyl-morpholin-hydrochlorid]	26	60	8,4* °C	
Nc1c(Br)cc(OCC2CNCCO2)cc1Br (stereo not drawn) [C, 2-(4-Amino-3,5-dibrom-phenoxy-methylen)-morpholin-hydrochlorid]	17.5	21	7,3* °C	
CC(C)(C)N1CCOC(COc2cc(Br)cc(Br)c2N)C1 (stereo not drawn) [D, 2-(2-Amino-3,5-dibrom-phenoxy-methylen)-4-tert.butyl-morpholin-hydrochlorid]	150	> 200	0,6 °C	
CC(C)N1CCOC(COc2cc(Br)c(Cl)cc2N)C1 (stereo not drawn) [E, 2-(2-Amino-5-brom-4-chlor-phenoxy-methylen)-4-isopronyl-morpholin-dihydrochlorid]	200	> 200	1,0 °C	
CCOc1ccccc1OCC1CNCCO1 (stereo not drawn) [F, 2-(2-Äthoxy-phenoxy-methylen)-morpholin-hydrochlorid, reference compound]		~200	9,8* °C	42
